36 substances from US8507445B2, “Compositions and methods of use of targeting peptides for diagnosis and therapy of human cancer” (Board of Regents, The University of Texas System, priority 2002, dated 2013) can be followed below.

Experiment [1] concerns immunoglobulins from the serum of prostate cancer patient M. Put plainly: Biopanning on purified immunoglobulins from serum of prostate cancer patient M. It counts as binding, human. To be noted: three rounds of panning; for phage exhibiting the sequence / total clones, 1994 Serum: early stage; for phage exhibiting the sequence / total clones, 1998 Serum: intermediate stage; for phage exhibiting the sequence / total clones, 2000 Serum: late stage. From the text: The methods used were similar to those described in Example 4. A subtraction protocol was used, in which IgG from a normal individual was coupled to protein G chromatography beads. A cyclic CX6C phage display library, prepared as described above, was exposed to the normal IgG's. […] Antibodies from patient M (prostate cancer patient) were attached to fresh protein G chromatograpy beads. […] This procedure was followed for three rounds of screening and targeting peptides against patient M's antibodies were obtained.
Serum samples from the same patient were obtained from archival specimens and used to obtain targeting peptides. Patient M's serum from 1994 (early stage cancer), 1998 (intermediate stage) and 2000 (late stage) were used to obtain antibody targeting peptides as described above.

Experiment [2] concerns immunoglobulins from the serum of metastatic prostate cancer patients. Kind of experiment: Biopanning of CX6C phage library on IgGs from serum of prostate cancer patients A, B, C. The following applies: for share of the clones analyzed: second and third rounds, patient A, B or C that yielded the peptide; for share of the clones in round II / share of the clones in round III: patient C. It counts as binding, human. From the text: Sera was selected from patients diagnosed with androgen-dependent and androgen-independent prostate cancer. A CX6C peptide library was screened against this pool of IgGs in a two-step procedure. First, the peptide library was pre-cleared against a pool of purified IgGs from normal serum samples using Protein G affinity chromatography. This step removed peptides from the phage display library that bound to immunoglobulins from patients without prostate cancer. Next, the pre-cleared peptide library was screened against the pool of purified IgGs from the serum of prostate cancer patients. This step selected peptides binding specifically to IgGs elicited against prostate cancer.
A 6-mer cyclic peptide (CX6C) phage display library was used for the biopanning. To select peptides specific to the serum antibodies of cancer patients, a pre-clearing stage was employed to remove non-specific peptides by pre-absorbing the peptide library onto purified IgGs from pooled normal serum (five healthy male individuals). The pre-cleared peptide library was screened onto the purified IgGs from the serum of prostate cancer patients. In brief, 10^9 transducing units (T.U.) of a CX6C cyclic peptide phage library were incubated with IgG antibodies from 50 μl of normal serum immobilized on 50 μl of protein G (Gibco BRL) for 1 hour at 4° C. This was followed by affinity selection on the immobilized IgG antibodies from prostate cancer patient serum for 2 hours at 4° C. Phage peptides specifically bound to IgGs elicited against prostate cancer were eluted with 100 μl of 0.1 M glycine buffer, pH 2.2, neutralized by the addition of 10 μl 1M Tris pH 9.0, and used to infect E. coli strain K91. Ten-fold serial dilutions of the infected solution were spread onto agar plates containing 40 μg/ml of tetracycline and grown overnight. Two hundred colonies were picked, amplified, and precipitated for a subsequent round of panning. A total of three rounds were performed. Individual phage clones were picked for PCR and the insert DNA was sequenced.

In experiment [3] the test system is serum antibodies of prostate cancer patients. Kind of experiment: ELISA of serum reactivity against GST-fusion peptides. Type of experiment: binding, human. The procedure:
A 20 μg/ml solution of purified GST or GST-fusion proteins in 0.1M NaHCO3 was used to coat maxisorp multi-well plates (Nalge Nunc International Corporation) and incubated overnight at 4° C. The plates were blocked in a blocking buffer (4% milk, 2% casein, and 0.05% Tween-20) for 3-4 hours. A series of […] dilutions (1:100-1:1200) of sera from prostate cancer patients or healthy individuals was added and incubated for 1.5 hours and then washed five times with washing buffer (1% milk, 0.5% casein, and 0.025% Tween-20), followed by incubation at 4° C. with anti-human alkaline phosphatase-conjugated antibodies (Gibco). The plates were then washed six times in washing buffer and developed using p-NPP (Sigma) as a substrate. An automatic ELISA plate reader (BIO-TEK instrument) recorded the results at OD405 nm.
Probabilities of survival for each group were estimated using the Kaplan-Meier method. A log-rank test was implemented in order to detect significant differences between the groups. Reactivity was considered to be detected if the ratio between GST-peptide and GST alone was greater or equal to two by the ELISA data. A Log-Rank test was used to determine statistical differences between groups. A statistical CART analysis (Classification And Regression Tree) was used to identify the best cut-off point for determining reactivity to GRP78. In this method, the censored survival data were transformed into a single uncensored data value (the so-called “null martingale residual”), which was used as input into a standard regression tree algorithm. A cut-off point of 0.95 was determined by this program

Experiment [4] concerns adipose tissue. Kind of experiment: Validation of adipose homing phage in vivo. The following applies: mouse. The arrangement: species or system obese mice. From the text: A substractive phage display protocol (see Example 8 below) was used to isolate fat targeting peptides from a genetically obese mouse (Zhang et al., Nature, 372:425-432, 1994; Pelleymounter et al., Science 269:540-543, 1994). Phage that had been subjected to biopanning in obese mice were post-cleared in a normal mouse. The fat-targeting peptides isolated included TRNTGNI (SEQ ID NO:72), FDGQDRS (SEQ ID NO:73); WGPKRL (SEQ ID NO:74); WGESRL (SEQ ID NO:75); VMGSVTG (SEQ ID NO:76), KGGRAKD (SEQ ID NO:77), RGEVLWS (SEQ ID NO:78), TREVHRS (SEQ ID NO:79) and HGQGVRP (SEQ ID NO:80).
The fat homing clones selected were: FA—KGGRAKD (SEQ ID NO:77), FC—RGEVLWS (SEQ ID NO:78), FE—TREVHRS (SEQ ID NO:79) and FX—VMGSVTG (SEQ ID NO:76).

In experiment [5] the test system is DU145 xenografts. Kind of experiment: Phage localization by anti-phage staining of tissues. It counts as in vivo, nude mice. To be noted: 24 hour circulation. Here is the method: To determine the specificity of the prostate tumor targeting peptides, 10^9 phage carrying the targeting peptide sequences […] (SEQ ID NO:83) and […] (SEQ ID NO:84) were injected into nude mice bearing DU145 xenografts. After 24 hour circulation, tissue samples were obtained from tumor and control organs (kidney, brain, lung and spleen). Tissue samples were washed immediately in DMAM and fixed in 10% formalin for 48 hours at room temperature. Thin sections were stained for phage using anti-phage antibody (1:500 dilution) and detected using the DAKO LSAB+ system. […] This may be due to the tendency of spleen tissue to trap phage and other foreign particles in general as part of the reticuloendothelial system.

For experiment [6], the system named is DU145 xenografts. Put plainly: Biopanning of X2CX14CX2 phage library in tumor-bearing mice. Type of experiment: in vivo, nude mice. To be noted: third round, 76 translated clones. The procedure:
DU145 prostate tumor cells were injected subcutaneously into the right fat pad of nude mice. A large phage library (X2CX14CX2) was prepared as discussed above and 10^9 phage were injected into male tumor-bearing nude mice. After 24 hr circulation, tumors were removed and phage recovered from the tumors using the bulk method disclosed above. The recovered phage were amplified, titered and reinjected into a new set of tumor bearing nude mice. The biopanning protocol was repeated for a total of three rounds. Ninety-six phage clones recovered from the third round of biopanning were selected for sequencing. Translated sequences were obtained for 76 of the 96 clones.

“Also recorded” adds a separate entry of the source.

As for CAVKSVTC, in experiment [1], the “phage exhibiting the sequence / total clones, 1994 Serum” value is recorded as “CAVKSVTC (1/22)”.

In the case of CFETFAGC, the “phage exhibiting the sequence / total clones, 1998 Serum” value in experiment [1] was “CFETFAGC (1/20)”.

With CFPKRVTC, in experiment [1], the “phage exhibiting the sequence / total clones, 2000 Serum” value was “CFPKRVTC (1/29)”.

Turning to CHQKPWEC, in experiment [2], the “share of the clones analyzed” value was 100%.

With CIDMTHQC, the “phage exhibiting the sequence / total clones, 1994 Serum” value in experiment [1] was “CIDMTHQC (1/22)”.

Take CISSPSNC: in experiment [1], the “phage exhibiting the sequence / total clones, 1994 Serum” value is reported as “CISSPSNC (1/22)”.

Regarding CKDRFERC, in experiment [2], the “share of the clones analyzed” value is 100%.

Consider CKNKHTTC, for which, in experiment [1], the “phage exhibiting the sequence / total clones, 1998 Serum” value is “CKNKHTTC (1/20)”.

For CLTSENAC, in experiment [1], the “phage exhibiting the sequence / total clones, 1994 Serum” value was “CLTSENAC (1/22)”.

For the substance CNGFMGYC, the “phage exhibiting the sequence / total clones, 1994 Serum” value in experiment [1] was “CNGFMGYC (1/22)”.

For the substance CNITQKSC, in experiment [2], the “share of the clones in round II” value came out at 33.3% and the “share of the clones in round III” value was determined as 0%.

Consider CNKTDKGC, for which, in experiment [2], the “share of the clones in round II” value came out at 16.7% and the “share of the clones in round III” value came out at 0%.

As for CNNMYAGC, the “phage exhibiting the sequence / total clones, 1998 Serum” value in experiment [1] is given as “CNNMYAGC (1/20)”.

Regarding CNQSMWSC, the “phage exhibiting the sequence / total clones, 1994 Serum” value in experiment [1] is on record as “CNQSMWSC (1/22)”.

Regarding CNSAFAGC, in experiment [1], the “phage exhibiting the sequence / total clones, 1994 Serum” value was “CNSAFAGC (1/22)”; the “phage exhibiting the sequence / total clones, 1998 Serum” value is recorded as “CNSAFAGC (1/20)”; the “phage exhibiting the sequence / total clones, 2000 Serum” value was “CNSAFAGC (1/29)”.

As for CNVSDKSC, the positive serum reactivity in experiment [3] (71 age-matched healthy men (control)) is 7%; in experiment [3] (metastatic androgen-independent prostate cancer), 76%; in experiment [3] (organ-confined prostate cancer patients), 6%; in experiment [3] (patients with androgen-dependent tumors), 29%. For the same substance, in experiment [2], the “share of the clones analyzed” value worked out at 55%.

Turning to CNWTDKTC, in experiment [2], the “share of the clones in round II” value is given as 33.3% and the “share of the clones in round III” value worked out at 7%.

On to CPRSAKNC, for which the “phage exhibiting the sequence / total clones, 2000 Serum” value in experiment [1] is “CPRSAKNC (1/29)”.

With CQFENGTC, the “phage exhibiting the sequence / total clones, 1994 Serum” value in experiment [1] was “CQFENGTC (1/22)”.

On to CQNQYPEC, for which, in experiment [1], the “phage exhibiting the sequence / total clones, 1994 Serum” value is listed as “CQNQYPEC (1/22)” and the “phage exhibiting the sequence / total clones, 1998 Serum” value is listed as “CQNQYPEC (1/20)”.

CRASAMVC: the “phage exhibiting the sequence / total clones, 1994 Serum” value in experiment [1] is on record as “CRASAMVC (1/22)”.

With CRDGYHHC, the “phage exhibiting the sequence / total clones, 1994 Serum” value in experiment [1] is listed as “CRDGYHHC (1/22)”.

With CSASDLSC, the “phage exhibiting the sequence / total clones, 1994 Serum” value in experiment [1] is “CSASDLSC (2/22)”.

With CSKKFVTC, in experiment [1], the “phage exhibiting the sequence / total clones, 1998 Serum” value is listed as “CSKKFVTC (3/20)”.

For CSTFAGSC, the “phage exhibiting the sequence / total clones, 1994 Serum” value in experiment [1] is on record as “CSTFAGSC (1/22)”.

CSYTFAGC: the “phage exhibiting the sequence / total clones, 1994 Serum” value in experiment [1] is “CSYTFAGC (1/22)”.

Take CTFAGSSC: in experiment [1], the “phage exhibiting the sequence / total clones, 1994 Serum” value was “CTFAGSSC (6/22)”; the “phage exhibiting the sequence / total clones, 1998 Serum” value is “CTFAGSSC (12/20)”; the “phage exhibiting the sequence / total clones, 2000 Serum” value is given as “CTFAGSSC (26/29)”.

Turning to KGGRAKD [FA], the “homing to adipose tissue compared to control fd-tet phage” value in experiment [4] is “some elevation of homing to adipose tissue”.

In the case of LGCMASMLREFEGATHACTQ, in experiment [5], the “anti-phage staining of control kidney, brain or lung” value is “No staining was observed”; the “anti-phage staining of normal spleen” value is listed as “low level of anti-phage staining”; the “anti-phage staining of tumor” value is reported as “very heavy staining”.

RGEVLWS [FC]: the “homing to adipose tissue compared to control fd-tet phage” value in experiment [4] was “some elevation of homing to adipose tissue”.

As to TREVHRS [FE], the “homing to adipose tissue compared to control fd-tet phage” value in experiment [4] is listed as “some elevation of homing to adipose tissue”.

Consider VMGSVTG [FX], for which the “homing to adipose tissue compared to control fd-tet phage” value in experiment [4] is recorded as “some elevation of homing to adipose tissue; also recorded: several orders of magnitude higher adipose localization”.

Turning to VRCNEAQLQDSGTVPHPCLR, the “number of times the sequence was obtained” value (“number” below) in experiment [6] is recorded as “VRCNEAQLQDSGTVPHPCLR (1)”.

Regarding VVCFMERQMGTDVVSPMCVN, the “number” value in experiment [6] was “VVCFMERQMGTDVVSPMCVN (1)”.

On to WVCTSASQDTRLKEPGMCIA, for which the “number” value in experiment [6] is “WVCTSASQDTRLKEPGMCIA (1)”.

For the substance YSCTRLNGTGLQNPPSACDR, in experiment [6], the “number” value is “YSCTRLNGTGLQNPPSACDR (1)”.
